Common to all, as to assay type: biochemical
In one experiment the target is T1, SIK2 (Homo sapiens, UniProt Q9H0K1).
T1 construct: purchased Life Technologies
Nature of the experiment: SIK2 kinase assay, IMAP fluorescence polarization. The note with it: 50 or 100 μM ATP, average. Put shortly:
(§1)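 Dose-response over 0.00005-1 μM compound in 20 mM Tris pH 7.2 containing 4 mM MgCl2, 0.2% BSA and 2 mM DTT, with 50 or 100 μM ATP and 100 nM FAM-labelled peptide. Kinase 0.6-13 nM, 60 min at room temperature; IMAP FP readout, inhibition normalized to no-inhibitor and no-enzyme controls.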
(In general: Fluorescence polarisation rises when a labelled molecule tumbles more slowly, as on binding a larger partner.)

The next experiment has as its target T2, SIK1 (Homo sapiens, UniProt P57059).
T2 construct: purchased Life Technologies
Nature of the experiment: SIK1 kinase assay, IMAP fluorescence polarization. Particulars: 50 or 100 μM ATP, average. Put shortly:
as §1

The next experiment has as its target T3, SIK3 (Homo sapiens, UniProt Q9Y2K2).
T3 construct: purchased Life Technologies
Kind of experiment: SIK3 kinase assay, IMAP fluorescence polarization. Particulars: 50 or 100 μM ATP, average. Put shortly:
as §1

For another experiment, the target named is T4, Abl (Homo sapiens, UniProt P00519).
T4 construct: purchased Life Technologies
Kind of experiment: Abl kinase assay, IMAP fluorescence polarization. The note with it: 50 or 100 μM ATP, average. Put shortly:
as §1

Another experiment concerns the target T5, Src (Homo sapiens, UniProt P12931).
T5 construct: purchased Life Technologies
Kind of experiment: Src kinase assay, IMAP fluorescence polarization. Particulars: 50 or 100 μM ATP, average. Put shortly:
as §1

The target of a further experiment is T6, EPHA2 (Homo sapiens, UniProt P29317).
T6 construct: purchased Life Technologies
Kind of experiment: EPHA2 kinase assay, IMAP fluorescence polarization. Particulars: 50 or 100 μM ATP, Tris pH 8.5, average.

T2 sequence (P57059 whole entry): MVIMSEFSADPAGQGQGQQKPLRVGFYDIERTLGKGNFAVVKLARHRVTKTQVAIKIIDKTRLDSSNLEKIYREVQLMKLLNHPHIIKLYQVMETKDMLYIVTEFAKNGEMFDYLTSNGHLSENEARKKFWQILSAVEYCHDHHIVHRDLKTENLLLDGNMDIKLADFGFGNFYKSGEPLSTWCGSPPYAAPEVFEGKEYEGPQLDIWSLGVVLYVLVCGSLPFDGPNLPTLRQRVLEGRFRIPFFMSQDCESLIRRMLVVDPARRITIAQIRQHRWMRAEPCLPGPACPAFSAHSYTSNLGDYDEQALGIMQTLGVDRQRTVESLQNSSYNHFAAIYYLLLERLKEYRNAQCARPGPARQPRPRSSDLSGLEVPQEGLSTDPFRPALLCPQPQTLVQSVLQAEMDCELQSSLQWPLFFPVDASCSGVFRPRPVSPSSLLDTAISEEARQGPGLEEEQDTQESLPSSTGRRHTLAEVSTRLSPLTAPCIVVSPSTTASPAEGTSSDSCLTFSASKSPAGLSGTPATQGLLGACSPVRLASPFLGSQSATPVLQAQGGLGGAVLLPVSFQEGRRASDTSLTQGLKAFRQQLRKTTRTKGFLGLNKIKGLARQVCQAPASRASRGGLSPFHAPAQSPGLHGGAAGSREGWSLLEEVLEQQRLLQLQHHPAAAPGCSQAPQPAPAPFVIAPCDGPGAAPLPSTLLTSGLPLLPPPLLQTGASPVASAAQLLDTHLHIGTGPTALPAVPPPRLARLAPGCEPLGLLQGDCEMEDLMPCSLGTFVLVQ
T5 sequence (P12931 whole entry): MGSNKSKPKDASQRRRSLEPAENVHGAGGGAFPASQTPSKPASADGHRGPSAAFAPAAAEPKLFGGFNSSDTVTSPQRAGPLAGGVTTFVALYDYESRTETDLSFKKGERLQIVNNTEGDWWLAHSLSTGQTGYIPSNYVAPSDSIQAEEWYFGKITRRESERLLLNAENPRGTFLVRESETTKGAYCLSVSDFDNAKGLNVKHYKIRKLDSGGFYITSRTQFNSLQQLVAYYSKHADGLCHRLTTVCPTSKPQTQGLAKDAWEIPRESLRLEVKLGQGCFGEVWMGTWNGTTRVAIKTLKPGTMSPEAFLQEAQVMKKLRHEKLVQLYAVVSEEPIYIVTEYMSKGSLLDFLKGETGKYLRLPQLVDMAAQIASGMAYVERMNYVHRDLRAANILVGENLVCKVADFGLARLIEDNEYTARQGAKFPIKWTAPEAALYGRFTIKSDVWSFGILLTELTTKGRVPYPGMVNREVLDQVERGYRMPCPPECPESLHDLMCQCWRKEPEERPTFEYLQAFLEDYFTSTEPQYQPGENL
T6 sequence (P29317 24-976): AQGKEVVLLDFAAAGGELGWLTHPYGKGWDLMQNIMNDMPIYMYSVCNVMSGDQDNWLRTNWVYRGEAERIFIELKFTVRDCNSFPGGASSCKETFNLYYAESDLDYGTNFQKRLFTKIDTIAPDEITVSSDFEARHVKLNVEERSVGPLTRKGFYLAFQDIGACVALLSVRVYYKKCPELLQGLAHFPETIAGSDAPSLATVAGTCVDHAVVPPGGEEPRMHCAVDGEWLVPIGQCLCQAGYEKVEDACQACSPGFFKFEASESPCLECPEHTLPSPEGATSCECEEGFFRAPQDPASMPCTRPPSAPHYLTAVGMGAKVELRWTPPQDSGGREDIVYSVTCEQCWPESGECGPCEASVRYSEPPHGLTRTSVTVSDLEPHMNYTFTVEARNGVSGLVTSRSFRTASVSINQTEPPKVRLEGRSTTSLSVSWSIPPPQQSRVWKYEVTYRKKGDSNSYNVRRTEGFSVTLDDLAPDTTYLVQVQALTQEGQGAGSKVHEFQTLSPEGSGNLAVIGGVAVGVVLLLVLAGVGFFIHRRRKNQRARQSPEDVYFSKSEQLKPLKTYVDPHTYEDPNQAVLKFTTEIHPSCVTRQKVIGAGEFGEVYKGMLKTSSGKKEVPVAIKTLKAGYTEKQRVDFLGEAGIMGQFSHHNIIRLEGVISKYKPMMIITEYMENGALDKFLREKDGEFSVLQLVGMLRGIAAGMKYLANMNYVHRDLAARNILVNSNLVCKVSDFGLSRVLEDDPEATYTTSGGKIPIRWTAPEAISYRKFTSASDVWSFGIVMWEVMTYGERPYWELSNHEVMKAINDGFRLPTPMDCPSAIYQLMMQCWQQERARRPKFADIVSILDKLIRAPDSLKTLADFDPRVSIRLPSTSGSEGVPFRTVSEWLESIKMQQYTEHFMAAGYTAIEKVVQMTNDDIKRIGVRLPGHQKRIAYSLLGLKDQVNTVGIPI
T1 sequence (Q9H0K1 whole entry): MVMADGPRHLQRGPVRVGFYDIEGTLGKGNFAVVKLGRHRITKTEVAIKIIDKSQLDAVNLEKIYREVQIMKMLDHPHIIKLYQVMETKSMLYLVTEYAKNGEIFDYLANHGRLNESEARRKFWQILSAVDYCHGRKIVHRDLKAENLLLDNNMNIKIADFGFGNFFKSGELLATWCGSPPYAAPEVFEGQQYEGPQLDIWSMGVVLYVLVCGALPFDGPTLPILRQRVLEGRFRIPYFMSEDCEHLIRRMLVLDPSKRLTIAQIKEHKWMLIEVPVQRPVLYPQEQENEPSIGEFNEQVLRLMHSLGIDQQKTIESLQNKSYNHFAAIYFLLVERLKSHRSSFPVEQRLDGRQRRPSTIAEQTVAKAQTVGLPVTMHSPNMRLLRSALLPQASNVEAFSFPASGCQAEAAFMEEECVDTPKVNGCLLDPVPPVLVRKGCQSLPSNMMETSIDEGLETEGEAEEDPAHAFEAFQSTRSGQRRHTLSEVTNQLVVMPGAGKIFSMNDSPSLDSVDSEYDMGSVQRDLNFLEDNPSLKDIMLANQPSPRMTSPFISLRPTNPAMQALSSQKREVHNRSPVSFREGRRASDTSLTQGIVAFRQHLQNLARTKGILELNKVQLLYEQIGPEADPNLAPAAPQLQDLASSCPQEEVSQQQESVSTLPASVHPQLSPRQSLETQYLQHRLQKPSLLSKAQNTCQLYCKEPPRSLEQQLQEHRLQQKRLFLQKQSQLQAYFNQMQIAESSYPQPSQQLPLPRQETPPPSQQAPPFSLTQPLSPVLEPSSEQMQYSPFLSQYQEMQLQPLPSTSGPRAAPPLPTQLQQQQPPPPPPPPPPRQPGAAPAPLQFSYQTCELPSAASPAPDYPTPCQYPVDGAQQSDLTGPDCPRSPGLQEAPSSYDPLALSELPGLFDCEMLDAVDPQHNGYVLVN
T3 sequence (Q9Y2K2 whole entry): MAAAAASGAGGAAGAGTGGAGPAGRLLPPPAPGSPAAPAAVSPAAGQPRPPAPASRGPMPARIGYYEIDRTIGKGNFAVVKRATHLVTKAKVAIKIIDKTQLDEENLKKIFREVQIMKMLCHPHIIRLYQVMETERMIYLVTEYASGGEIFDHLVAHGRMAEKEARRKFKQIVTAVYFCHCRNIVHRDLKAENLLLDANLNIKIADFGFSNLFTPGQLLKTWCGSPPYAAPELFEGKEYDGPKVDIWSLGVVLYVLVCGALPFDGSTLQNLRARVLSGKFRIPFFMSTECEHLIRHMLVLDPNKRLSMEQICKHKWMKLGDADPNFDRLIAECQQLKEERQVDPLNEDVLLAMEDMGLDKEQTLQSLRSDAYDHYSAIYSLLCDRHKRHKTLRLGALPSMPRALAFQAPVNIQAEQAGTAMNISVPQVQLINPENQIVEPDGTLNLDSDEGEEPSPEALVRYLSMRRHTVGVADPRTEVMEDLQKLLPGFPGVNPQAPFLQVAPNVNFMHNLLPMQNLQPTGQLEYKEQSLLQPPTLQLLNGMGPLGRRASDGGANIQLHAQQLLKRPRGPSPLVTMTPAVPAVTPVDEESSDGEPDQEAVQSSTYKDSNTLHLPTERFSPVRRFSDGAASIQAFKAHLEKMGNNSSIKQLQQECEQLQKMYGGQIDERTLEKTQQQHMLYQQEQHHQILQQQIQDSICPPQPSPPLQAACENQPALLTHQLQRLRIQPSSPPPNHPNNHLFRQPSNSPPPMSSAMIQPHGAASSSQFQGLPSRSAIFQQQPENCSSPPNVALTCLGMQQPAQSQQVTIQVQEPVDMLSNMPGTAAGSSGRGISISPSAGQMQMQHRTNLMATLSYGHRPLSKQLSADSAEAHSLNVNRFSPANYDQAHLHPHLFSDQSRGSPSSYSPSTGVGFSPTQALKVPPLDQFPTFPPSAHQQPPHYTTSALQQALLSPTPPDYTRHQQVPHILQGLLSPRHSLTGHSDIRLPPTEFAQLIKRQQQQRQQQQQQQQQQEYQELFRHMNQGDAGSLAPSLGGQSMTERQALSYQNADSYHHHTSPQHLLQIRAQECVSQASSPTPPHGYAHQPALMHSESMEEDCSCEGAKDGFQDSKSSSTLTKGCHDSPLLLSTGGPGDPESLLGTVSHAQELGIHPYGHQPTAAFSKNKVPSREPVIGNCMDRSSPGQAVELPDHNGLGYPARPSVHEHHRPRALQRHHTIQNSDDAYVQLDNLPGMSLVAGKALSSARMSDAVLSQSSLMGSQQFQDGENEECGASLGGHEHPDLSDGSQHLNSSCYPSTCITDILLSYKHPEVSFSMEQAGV

With `Cc1cccc(F)c1-c1cc(OC2CCN(C)CC2)c2cc(N)ncc2c1` [Example 101, 7-(2-Fluoro-6-methyl-phenyl)-5-[(1-methyl-4-piperidyl)oxy]isoquinolin-3-amine], the Ki at SIK2 was 0.0539 nM; on SIK1, 0.66 nM; at SIK3, 0.915 nM; on Abl, 59.1 nM; at Src, 134 nM; at EPHA2 it was over 100 nM.
Regarding `Cc1cccc(F)c1-c1cc(NC[C@H]2CCCCN2C)c2cc(N)ncc2c1` [Example 56, 7-(2-fluoro-6-methyl-phenyl)-N5-[[(2R)-1-methyl-2-piperidyl]methyl] isoquinoline-3,5-diamine], the Ki on SIK2 stood at 0.578 nM; at SIK1, 1.06 nM; at SIK3 it was 6.3 nM; on Abl it was 48 nM; on Src, 229 nM; on EPHA2, 238 nM.
On to `Cc1cccc(Cl)c1-c1cc(NC2CCN(C)CC2)c2nc(N)ncc2c1` [Example 129, 6-(2-chloro-6-methyl-phenyl)-N8-(1-methyl-4-piperidyl)quinazoline-2,8-diamine], for which the Ki on SIK2 amounted to 0.0784 nM; at SIK1, 0.176 nM; at SIK3, 0.339 nM; at Abl, 17.4 nM; on Src, 19.3 nM; at EPHA2, 18.1 nM.
`Cc1cccc(F)c1-c1cc(NC2CCN(C)CC2)c2ccncc2c1` [Example 103, 7-(2-Fluoro-6-methyl-phenyl)-N-(1-methyl-4-piperidyl)isoquinolin-5-amine]: the Ki was found to be 0.296 nM at SIK2; 2.21 nM on SIK1; 5.01 nM at SIK3; 97.2 nM at Abl; 143 nM at Src; 189 nM on EPHA2.
For the compound `Cc1cccc(Cl)c1-c1cc(NC2CCNCC2)c2cc(N)ncc2c1` [Example 30, 7-(2-Chloro-6-methyl-phenyl)-N5-(4-piperidyl)isoquinoline-3,5-diamine], the Ki stood at 0.335 nM at SIK2; 0.474 nM on SIK1; 2.92 nM on SIK3; 36.1 nM at Abl; 96.2 nM at Src; 65.5 nM at EPHA2.
With `Cc1cccc(F)c1-c1cc(N2CCC[C@H](N(C)C)C2)c2cc(N)ncc2c1` [Example 82, 5-[(3S)-3-(dimethylamino)-1-piperidyl]-7-(2-fluoro-6-methyl-phenyl)isoquinolin-3-amine], the Ki is 0.269 nM at SIK2; 1.25 nM at SIK1; 10.3 nM on SIK3; 10.4 nM at Abl; 93.9 nM on Src; over 1000 nM on EPHA2.
Turning to `Cc1cccc(F)c1-c1cc(NC2CCN(C)CC2)c2ccncc2n1` [Example 122, 2-(2-Fluoro-6-methyl-phenyl)-N-(1-methyl-4-piperidyl)-1,7-naphthyridin-4-amine], the Ki is 121 nM at SIK2; 266 nM on SIK1; 531 nM on SIK3; over 10000 nM on Abl; over 10000 nM on Src; over 10000 nM on EPHA2.
As for `Cc1cccc(F)c1-c1cc(NC2CCN(C)CC2)c2cc(N)ncc2c1F` [Example 119, 8-fluoro-7-(2-fluoro-6-methyl-phenyl)-N5-(1-methyl-4-piperidyl)isoquinoline-3,5-diamine], the Ki on SIK2 was 3.11 nM; at SIK1, 4.3 nM; on SIK3, 25 nM; on Abl it was over 1000 nM; on Src, over 1000 nM; at EPHA2 it was over 1000 nM.
`CNC1CCN(c2cc(-c3c(C)cccc3F)cc3cnc(N)cc23)CC1` [Example 15, 7-(2-fluoro-6-methyl-phenyl)-5-[4-(methylamino)-1-piperidyl]isoquinolin-3-amine]: the inhibitory constant (Ki) was found to be 0.155 nM on SIK2; 1.01 nM at SIK1; 1.94 nM on SIK3; 19.4 nM on Abl; 396 nM on Src; 156 nM on EPHA2.
`Cc1cccc(F)c1-c1cc(N2CC[C@H](N(C)C)C2)c2cc(N)ncc2c1` [Example 59, 5-[(3S)-3-(dimethylamino)pyrrolidin-1-yl]-7-(2-fluoro-6-methyl-phenyl)isoquinolin-3-amine]: the Ki is 2.87 nM on SIK2; 15.3 nM on SIK1; 27.4 nM on SIK3; 211 nM on Abl; 2170 nM on Src; over 1000 nM on EPHA2.
Regarding `Cc1cccc(F)c1-c1cc(OC2CNC2)c2cc(N)ncc2c1` [Example 47, 5-(azetidin-3-yloxy)-7-(2-fluoro-6-methyl-phenyl)isoquinolin-3-amine], the Ki stood at 0.168 nM on SIK2; 1.01 nM at SIK1; 2.07 nM on SIK3; 13.5 nM on Abl; 731 nM on Src; 1080 nM on EPHA2.
As for `Cc1cccc(F)c1-c1cc(NC[C@H]2CCNC2)c2cc(N)ncc2c1` [Example 9, 7-(2-fluoro-6-methyl-phenyl)-N5-[[(3S)-pyrrolidin-3-yl]methyl]isoquinoline-3,5-diamine], the Ki on SIK2 was found to be 0.0411 nM; on SIK1, 0.316 nM; on SIK3 it was 0.269 nM; at Abl, 0.687 nM; on Src, 217 nM; on EPHA2 it was 166 nM.
As for `Cc1cccc(F)c1-c1cc(N[C@@H]2CCNC2)c2cc(N)ncc2c1` [Example 4, 7-(2-fluoro-6-methyl-pheny)-N5-[(3R)-pyrrolidin-3-yl]isoquinoline-3,5-diamine], the Ki on SIK2 was determined as 0.0703 nM; on SIK1 it was 0.354 nM; on SIK3 it was 0.231 nM; at Abl, 7.79 nM; on Src, 138 nM; at EPHA2, 644 nM.
With `Cc1cccc(Cl)c1-c1cc(NC2CNC2)c2cc(N)ncc2c1` [Example 31, N5-(azetidin-3-yl)-7-(2-chloro-6-methyl-phenyl)isoquinoline-3,5-diamine], the Ki at SIK2 was 0.968 nM; at SIK1 it was 2.6 nM; at SIK3, 9.52 nM; at Abl, 182 nM; at Src, 315 nM; on EPHA2, over 1000 nM.
For `Cc1cccc(F)c1-c1cc(N2CCC(N(C)C)CC2)c2cc(N)ncc2c1` [Example 57, 5-[4-(dimethylamino)-1-piperidyl]-7-(2-fluoro-6-methyl-phenyl)isoquinolin-3-amine], the Ki worked out at 0.147 nM on SIK2; 1.13 nM on SIK1; 2.45 nM on SIK3; 59.9 nM on Abl; 303 nM on Src; 150 nM on EPHA2.
In the case of `Cc1cccc(F)c1-c1cc(C(=O)NC2CCN(C)C2)c2cc(N)ncc2c1` (stereo not drawn) [Example 99, 3-Amino-7-(2-fluoro-6-methyl-phenyl)-N-(1-methylpyrrolidin-3-yl)isoquinoline-5-carboxamide], the inhibition constant Ki came to 2.91 nM on SIK2; 5.62 nM at SIK1; 38.8 nM on SIK3; 3.04 nM on Abl; 32.9 nM on Src; 29.2 nM on EPHA2.
`CCN1CCC(Nc2cc(-c3c(C)cccc3F)c(F)c3cnc(N)cc23)CC1` [Example 118, N5-(1-Ethyl-4-piperidyl)-8-fluoro-7-(2-fluoro-6-methyl-phenyl)isoquinoline-3,5-diamine]: the Ki at SIK2 was 6.2 nM; on SIK1, 10.2 nM; at SIK3, 77 nM; at Abl, over 10000 nM; at Src, over 10000 nM; on EPHA2, over 10000 nM.

What is called Ki is the dissociation constant of the complex between target and ligand, obtained from inhibition or displacement. Low values mean higher affinity, high ones lower affinity.

The record behind these values is patent US12637428B2, “Isoquinoline derivatives as SIK2 inhibitors” (Cancer Research Technology Limited, priority 2019, dated 2026).
